Laboratory results as given in patent US9005673B2, “Preservative and additive for food and feed” (priority 2005, dated 2015).

Experiment: Contact of acid solutions with human skin
Settings: solution with a pH of less than 0.5

O=S(=O)(O)O [sulfuric acid]
irritation of a hand put into the solution: an irritation would occur
